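Abbreviation: GI50, concentration required for 50% inhibition of growth. TGI: total growth inhibition.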
How the values were obtained:
Test in all cases: NCI tumour cell line growth inhibition, 384-well format
NCI-H522 lung = system: NCI-H522 lung
MCF7 breast = system: MCF7 breast
SK-MEL-28 melanoma = system: SK-MEL-28 melanoma
SF-295 CNS = system: SF-295 CNS
OVCAR-8 ovarian = system: OVCAR-8 ovarian
DU-145 prostate = system: DU-145 prostate
SF-268 CNS = system: SF-268 CNS
HT29 colon = system: HT29 colon
MDA-MB-468 breast = system: MDA-MB-468 breast
NCI-H226 lung = system: NCI-H226 lung
U251 glioblastoma = system: U251 glioblastoma
MALME-3M melanoma = system: MALME-3M melanoma
HOP-92 NSCLC = system: HOP-92 NSCLC
LOX IMVI melanoma = system: LOX IMVI melanoma
MDA-MB-231 breast = system: MDA-MB-231 breast
T-47D breast = system: T-47D breast
CAKI-1 renal = system: CAKI-1 renal
SF-539 CNS = system: SF-539 CNS
SK-OV-3 ovarian = system: SK-OV-3 ovarian
SW-620 colon = system: SW-620 colon
NCI-H23 lung = system: NCI-H23 lung
786-0 renal = system: 786-0 renal
HOP-62 NSCLC = system: HOP-62 NSCLC
NCI/ADR-RES ovarian = system: NCI/ADR-RES ovarian
OVCAR-4 ovarian = system: OVCAR-4 ovarian
SK-MEL-2 melanoma = system: SK-MEL-2 melanoma
TK-10 renal = system: TK-10 renal
HCT-116 colon = system: HCT-116 colon
HCC-2998 colon = system: HCC-2998 colon
IGROV1 ovarian = system: IGROV1 ovarian
MOLT-4 leukemia = system: MOLT-4 leukemia
M14 melanoma = system: M14 melanoma
NCI-H322M lung = system: NCI-H322M lung
BT-549 breast = system: BT-549 breast
NCI-H460 NSCLC = system: NCI-H460 NSCLC
K-562 leukemia = system: K-562 leukemia
COLO 205 colon = system: COLO 205 colon
OVCAR-3 ovarian = system: OVCAR-3 ovarian
SN12C renal = system: SN12C renal
PC-3 prostate = system: PC-3 prostate
MDA-MB-435 melanoma = system: MDA-MB-435 melanoma
UACC-62 melanoma = system: UACC-62 melanoma
SK-MEL-5 melanoma = system: SK-MEL-5 melanoma
A549 NSCLC = system: A549 NSCLC
KM12 colon = system: KM12 colon
UO-31 renal = system: UO-31 renal
UACC-257 melanoma = system: UACC-257 melanoma
A498 renal = system: A498 renal
CCRF-CEM leukemia = system: CCRF-CEM leukemia
OVCAR-5 ovarian = system: OVCAR-5 ovarian
RXF 393 renal = system: RXF 393 renal
HCT-15 colon = system: HCT-15 colon
ACHN renal = system: ACHN renal
SNB-19 CNS = system: SNB-19 CNS
SR leukemia = system: SR leukemia
RPMI-8226 leukemia = system: RPMI-8226 leukemia
HL-60(TB) leukemia = system: HL-60(TB) leukemia

## CC1(C)CCC(c2ccc(Cl)cc2)=C(CN2CCN(c3ccc(C(=O)NS(=O)(=O)c4ccc(N[C@H](CCN5CCOCC5)CSc5ccccc5)c(S(=O)(=O)C(F)(F)F)c4)cc3)CC2)C1
NCI-H522 lung
  GI50: 1850 nM
  TGI: 3650 nM
MCF7 breast
  GI50: 1880 nM
  TGI: 4580 nM
SK-MEL-28 melanoma
  GI50: 1930 nM
  TGI: 3390 nM
SF-295 CNS
  GI50: 1750 nM
  TGI: 3140 nM
OVCAR-8 ovarian
  GI50: 1750 nM
  TGI: 3140 nM
DU-145 prostate
  GI50: 2300 nM
  TGI: 4790 nM
SF-268 CNS
  GI50: 1880 nM
  TGI: 3360 nM
HT29 colon
  GI50: 1840 nM
  TGI: 3270 nM
MDA-MB-468 breast
  GI50: 1590 nM
  TGI: 3080 nM
NCI-H226 lung
  GI50: 1100 nM
  TGI: 2310 nM
U251 glioblastoma
  GI50: 1910 nM
  TGI: 3390 nM
MALME-3M melanoma
  GI50: 1870 nM
  TGI: 3270 nM
HOP-92 NSCLC
  GI50: 135 nM
  TGI: 771 nM
LOX IMVI melanoma
  GI50: 1950 nM
  TGI: 3370 nM
MDA-MB-231 breast
  GI50: 316 nM
  TGI: 1170 nM
T-47D breast
  GI50: 1870 nM
  TGI: 3520 nM
CAKI-1 renal
  GI50: 2020 nM
  TGI: 3460 nM
SF-539 CNS
  GI50: 1720 nM
  TGI: 3110 nM
SK-OV-3 ovarian
  GI50: 1960 nM
  TGI: 3480 nM
SW-620 colon
  GI50: 940 nM
  TGI: 2120 nM
NCI-H23 lung
  GI50: 1730 nM
  TGI: 3130 nM
786-0 renal
  GI50: 1620 nM
  TGI: 3030 nM
HOP-62 NSCLC
  GI50: 2030 nM
  TGI: 3490 nM
NCI/ADR-RES ovarian
  GI50: 2800 nM
  TGI: 7690 nM
OVCAR-4 ovarian
  GI50: 1270 nM
  TGI: 2790 nM
SK-MEL-2 melanoma
  GI50: 1230 nM
  TGI: 2480 nM
TK-10 renal
  GI50: 1660 nM
  TGI: 3050 nM
HCT-116 colon
  GI50: 1600 nM
  TGI: 2990 nM
HCC-2998 colon
  GI50: 150 nM
  TGI: 765 nM
IGROV1 ovarian
  GI50: 1560 nM
  TGI: 2990 nM
MOLT-4 leukemia
  GI50: 22.1 nM
  TGI: 64 nM
M14 melanoma
  GI50: 1830 nM
  TGI: 3240 nM
NCI-H322M lung
  GI50: 1880 nM
  TGI: 3670 nM
BT-549 breast
  GI50: 1810 nM
  TGI: 3230 nM
NCI-H460 NSCLC
  GI50: 1840 nM
  TGI: 3280 nM
K-562 leukemia
  GI50: 1940 nM
  TGI: 3350 nM
COLO 205 colon
  GI50: 1250 nM
  TGI: 2510 nM
OVCAR-3 ovarian
  GI50: 1560 nM
  TGI: 2900 nM
SN12C renal
  GI50: 2130 nM
  TGI: 3590 nM
PC-3 prostate
  GI50: 1740 nM
  TGI: 3120 nM
MDA-MB-435 melanoma
  GI50: 1940 nM
  TGI: 3390 nM
UACC-62 melanoma
  GI50: 1800 nM
  TGI: 3190 nM
SK-MEL-5 melanoma
  GI50: 1660 nM
  TGI: 3020 nM
A549 NSCLC
  GI50: 1630 nM
  TGI: 3120 nM
KM12 colon
  GI50: 1760 nM
  TGI: 3230 nM
UO-31 renal
  GI50: 1370 nM
  TGI: 2670 nM
UACC-257 melanoma
  GI50: 1590 nM
  TGI: 3010 nM
A498 renal
  GI50: 1160 nM
  TGI: 2390 nM
CCRF-CEM leukemia
  GI50: 69.8 nM
  TGI: 198 nM
OVCAR-5 ovarian
  GI50: 1460 nM
  TGI: 2840 nM
RXF 393 renal
  GI50: 17.4 nM
  TGI: 325 nM
HCT-15 colon
  GI50: 1750 nM
  TGI: 3180 nM
ACHN renal
  GI50: 1800 nM
  TGI: 3200 nM
SNB-19 CNS
  GI50: 2170 nM
  TGI: 4020 nM
SR leukemia
  GI50: 365 nM
  TGI: 2040 nM
RPMI-8226 leukemia
  GI50: 82.1 nM
  TGI: 207 nM
HL-60(TB) leukemia
  GI50: 195 nM
  TGI: 893 nM
